Where a SMILES comes first, the peptide text is derived from it. Bridges are numbered along the chain shown (N, C = ends).
In the case of `CC[C@H](C)[C@@H]1NC(=O)[C@@H]2CSSC[C@H](NC(=O)[C@H](CCCNC(=N)N)NC(=O)[C@@H]3CSSC[C@H](NC1=O)C(=O)N[C@@H]([C@@H](C)O)C(=O)N[C@@H](CCCNC(=N)N)C(=O)NCC(=O)N[C@@H](Cc1ccccc1)C(=O)N3)C(=O)N[C@@H](CC(C)C)C(=O)N[C@H]1CSSC[C@H](NC(=O)[C@H](C(C)C)NC(=O)CNC(=O)[C@H](CCCNC(=N)N)NC(=O)[C@H](CCCNC(=N)N)NC1=O)C(=O)N[C@@H](CCCNC(=N)N)C(=O)N2` [Peptide 1] (cyclo(GFCRCLCRRGVCRCICTR); disulfide 3-16, 5-14, 7-12), the mortality (cynomolgus monkeys, 10-day repeat dose, any dose level) is reported as “no mortality or unscheduled euthanasia occurred”, the “urinalysis, ophthalmologic assessments, electrocardiogram” value (cynomolgus monkeys, any dose level, data not shown) is reported as “no treatment-related changes” and the food consumption (cynomolgus, females at 10 mg/kg/day and both sexes at 15 mg/kg/day, non-adverse) is reported as “Treatment-related decrease in food consumption”. For the same molecule, the “microscopic findings, lung” value (cynomolgus, males ≥10 mg/kg/day and females ≥5 mg/kg/day, Day 11, resolved by end of recovery) was “minimal to mild intravascular thrombosis (thromboembolism)” and the tolerability (male and female cynomolgus monkeys, doses up to 15 mg/kg) was “well tolerated”.
